Test results published in ChEMBL document CHEMBL1201862, “PubChem BioAssay data set” (2004).
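Where inhibition never reached the appropriate level, the endpoint shown equals the highest concentration tested. Otherwise, values were interpolated linearly from a five-concentration, 48-hour dose response in 96-well plates. Abbreviation: GI50, concentration required for 50% inhibition of growth.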 Calls of active or inactive are those of the source. No stated cut-off is given here; in the data, active = GI50 up to about 1.1 µM and inactive = higher.

Tests used:
Test in all cases: inhibition of tumour cell growth, NCI panel, 48 h
EKVX = test system: EKVX
RXF 393 = test system: RXF 393
NCI-H226 = test system: NCI-H226
LOX IMVI = test system: LOX IMVI
UO-31 = test system: UO-31
OVCAR-4 = test system: OVCAR-4
HT-29 = test system: HT-29
SF-295 = test system: SF-295
U-251 = test system: U-251
HCT-116 = test system: HCT-116
SK-MEL-2 = test system: SK-MEL-2
SNB-75 = test system: SNB-75
OVCAR-5 = test system: OVCAR-5
NCI-H522 = test system: NCI-H522
MOLT-4 = test system: MOLT-4
CAKI-1 = test system: CAKI-1
SW-620 = test system: SW-620
Malme-3M = test system: Malme-3M
HCT-15 = test system: HCT-15

Structure (SMILES)	GI50 (EKVX)	GI50 (RXF 393)	GI50 (NCI-H226)	GI50 (LOX IMVI)	GI50 (UO-31)	GI50 (OVCAR-4)	GI50 (HT-29)	GI50 (SF-295)	GI50 (U-251)	GI50 (HCT-116)	GI50 (SK-MEL-2)	GI50 (SNB-75)	GI50 (OVCAR-5)	GI50 (NCI-H522)	GI50 (MOLT-4)	GI50 (CAKI-1)	GI50 (SW-620)	GI50 (Malme-3M)	GI50 (HCT-15) [µM]
Cc1c2cc[n+](C)cc2c(C)c2c1[nH]c1ccccc12	0.718 µM (active)	1.75 µM (inactive)	0.34 µM (active)	10.9 µM (inactive)	15.8 µM (inactive)	2.77 µM (inactive)	5.83 µM (inactive)	0.233 µM (active)	0.379 µM (active)	4.22 µM (inactive)	1.11 µM (active)	0.193 µM (active)	9.84 µM (inactive)	0.869 µM (active)	0.912 µM (active)	4.39 µM (inactive)	1.17 µM (inactive)	0.855 µM (active)	
CCCCCCCCCOCC(COP(=O)([O-])OCC[N+](C)(C)C)OC (stereo not drawn)	> 100 µM (inactive)	> 100 µM (inactive)	99.1 µM (inactive)	> 100 µM (inactive)	> 100 µM (inactive)	> 100 µM (inactive)	> 100 µM (inactive)	> 100 µM (inactive)	> 100 µM (inactive)	> 100 µM (inactive)	> 100 µM (inactive)	> 100 µM (inactive)	> 100 µM (inactive)	> 100 µM (inactive)	> 100 µM (inactive)	> 100 µM (inactive)	> 100 µM (inactive)	> 100 µM (inactive)	> 100
O=[PH](O)c1cccs1	> 100 µM (inactive)	> 100 µM (inactive)		> 100 µM (inactive)	> 100 µM (inactive)		> 100 µM (inactive)	> 100 µM (inactive)	> 100 µM (inactive)	> 100 µM (inactive)				> 100 µM (inactive)	> 100 µM (inactive)	> 100 µM (inactive)	> 100 µM (inactive)		> 100
O=C1N[C@@H]2C(=C[C@H](O)[C@@H](O)[C@H]2O)c2cc3c(c(O)c21)OCO3 [NARCICLASINE]	0.045 µM (active)		0.045 µM (active)	0.045 µM (active)	0.045 µM (active)	0.142 µM (active)	0.045 µM (active)	0.0634 µM (active)	0.045 µM (active)	0.045 µM (active)	0.045 µM (active)	0.045 µM (active)	0.0632 µM (active)		0.045 µM (active)	0.045 µM (active)	0.045 µM (active)	0.045 µM (active)	0.045
CCCCCCc1ccc(O)cc1O [HEXYLRESORCINOL]	> 64.7 µM (inactive)	> 75.2 µM (inactive)	57.8 µM (inactive)	> 100 µM (inactive)	24.4 µM (inactive)	48.5 µM (inactive)	> 100 µM (inactive)	46.8 µM (inactive)	40.4 µM (inactive)	53.5 µM (inactive)	26.1 µM (inactive)	28.8 µM (inactive)	> 65.6 µM (inactive)	36.1 µM (inactive)	22.9 µM (inactive)		> 100 µM (inactive)	48 µM (inactive)	59.8
COc1ccc(N2CN(C)CSC2=S)cc1	> 100 µM (inactive)	> 100 µM (inactive)		86.7 µM (inactive)	> 100 µM (inactive)	> 100 µM (inactive)	> 100 µM (inactive)	23.4 µM (inactive)	> 100 µM (inactive)	71.3 µM (inactive)	> 100 µM (inactive)	> 100 µM (inactive)	71.9 µM (inactive)	29.7 µM (inactive)	76.7 µM (inactive)	> 100 µM (inactive)	43 µM (inactive)	> 100 µM (inactive)	76
